Test results published in patent publication US12377110B2, “Fospropofol methods and compositions” (Epalex Corporation, priority 2019, dated 2025).

Legend:
[1] = Study No. 15-3 toxicokinetics of fospropofol and propofol in plasma; type: in vivo, Sprague-Dawley rats; conditions: for AUC(0-t): Propofol AUC0-6 hr
Experimental: The purpose of Study No. 15-3 (GLP) was to determine the potential toxicity of fospropofol in Sprague-Dawley rats when administered once daily by oral gavage for 14 days. […] The cause of death for the three 250 mg/kg/day group main study females found dead could not be determined, but was considered related to the pharmacodynamic effects of fospropofol, based on the time of death relative to the time of close administration, and the clinical signs recorded before death. Clinical observations during the closing period for these animals included labored breathing, prostrate, splayed hindlimbs, uncoordinated movement, decreased activity, and eyes closed.

[2] = Study A16 Part 1: PK of single ascending oral doses of fospropofol disodium (200 to 2000 mg), fasted healthy adults; type: in vivo, human; conditions: for AUC(0-inf) / Cmax / Tmax / AUC(0-t) / half-life: both sexes, human, plasma
Experimental: Part 1 of Study A16 was a double-blind, randomized, placebo-controlled study to investigate the safety-tolerability and PK of oral administration of single ascending doses of fospropofol disodium to healthy adult male and female volunteers.
Subjects were healthy adults (age 18-55 years inclusive, BMI 18-29.9 kg/m^2). Separate cohorts of 12 subjects each were randomized to receive fospropofol disodium at doses of 200, 400, 800, 1000, 1200, 1600, or 2000 mg (n=10 per cohort) or matching placebo (n=2 per cohort).
Subjects were admitted to the clinical unit for an overnight fast (Day −1), administered study drug on Day 1, and remained in the clinical unit until Day 2.
Fospropofol disodium was formulated as powder in an HPMC capsule, each capsule containing 200 mg of fospropofol disodium (weight adjusted for water content). Placebo was administered as an appropriate number of matching capsules.
Based on PK results from the early cohorts, sampling times were optimized beginning with Cohort 3 (800 mg) to preclose, 5, 10, 15, 20, 25, 30, 37, and 45, minutes and 1, 2, 4, 6, and 9 hours after closing.

[3] = 200, 400, 800, and 1000 mg cohorts
[4] = oral fospropofol disodium 200 mg, mean
[5] = oral fospropofol disodium 400 mg, mean
[6] = oral fospropofol disodium 800 mg, mean
[7] = oral fospropofol disodium 1000 mg, mean, n = 9
[8] = oral fospropofol disodium 1600 mg, mean
[9] = oral fospropofol disodium 2000 mg, mean

Compound: CC(C)c1cccc(C(C)C)c1O [propofol, 2,6-diisopropylphenol]
- Increase of propofol Cmax and AUC0-6hr with fospropofol dose ([1]; Days 1 and 14): approximately close-proportional
- Propofol AUC0-6hr following repeated administration ([1]; female rats): appeared to increase
- Propofol AUC0-6hr following repeated administration ([1]; male rats): did not appear to change
- AUC(0-t) ([1]; male, Sprague-Dawley, rat, plasma, po, 50 mg/kg, oral gavage fospropofol disodium, Male, 50 mg/kg, Day 1): 0.219 µg·h/mL
- AUC(0-t) ([1]; male, Sprague-Dawley, rat, plasma, po, 50 mg/kg, oral gavage fospropofol disodium, Male, 50 mg/kg, Day 14): 0.416 µg·h/mL
- Cmax ([1]; male, Sprague-Dawley, rat, plasma, po, 50 mg/kg, Propofol Cmax, oral gavage fospropofol disodium, Male, 50 mg/kg, Day 14): 0.301 µg/mL
- Tmax ([1]; male, Sprague-Dawley, rat, plasma, po, 50 mg/kg, Propofol Tmax, oral gavage fospropofol disodium, Male, 50 mg/kg, Day 14): 15 min
- Dependence of systemic exposure on sex ([1]; rats, 14 days oral gavage fospropofol disodium): greater exposure in females
- Dose proportionality of propofol AUC0-2h and Cmax ([2]; 200 mg to 2000 mg): close proportional
- Dose proportionality of propofol AUC0-T and AUC0-∞ ([2]; 200 mg to 2000 mg): slightly greater than close-proportional
- Highest observed propofol Cmax relative to the mean Cmax of the cohort [2, 3]: greater than 2 times
- Highest observed propofol Cmax: standard deviations above the cohort mean [2, 3]: greater than 2 standard deviations
- Dose proportionality of propofol exposure (both Cmax and AUC) ([2]; 200 to 2000 mg, preliminary PK data): approximately close proportional
- Highest observed propofol Cmax relative to mean Cmax ([2]; 800-mg cohort): approximately 3.7 fold
- AUC(0-inf) ([2]; oral, 200 mg, Propofol AUC0-inf (arithmetic mean, n=10), after a single 200-mg capsule): 0.118 µg·h/mL
- AUC(0-inf) ([2]; oral, 200 mg, Propofol AUC0-inf (geometric mean, n=10), after a single 200-mg capsule): 0.112 µg·h/mL
- Cmax ([2]; oral, 200 mg, Propofol Cmax (arithmetic mean, n=10), after a single 200-mg capsule): 0.0694 µg/mL
- Cmax ([2]; oral, 200 mg, Propofol Cmax (geometric mean, n=10), after a single 200-mg capsule): 0.0617 µg/mL
- Tmax ([2]; oral, 200 mg, Propofol median Tmax, 200-mg dose): 30 min
- Cmax ([2]; oral, 800 mg, Highest observed propofol Cmax, 800-mg cohort): 1.35 µg/mL
- Cmax ([2]; oral, 800 mg, Mean propofol Cmax, 800 mg cohort): 0.362 µg/mL
- AUC(0-inf) ([2]; oral, 800 mg, Propofol AUC0-inf (arithmetic mean, n=10), single dose of 800 mg (four 200 mg capsules)): 0.559 µg·h/mL
- Cmax ([2]; oral, 800 mg, Propofol Cmax (arithmetic mean, n=10), single dose of 800 mg (four 200 mg capsules)): 0.362 µg/mL
- Tmax ([2]; oral, 1200 mg, Propofol Tmax (median), fasting conditions): 37 min
- Tmax ([2]; oral, 2000 mg, Propofol median Tmax, doses of 1600 or 2000 mg): 45 min
- AUC(0-inf) ([2]; po, 200 mg, Propofol AUC0-∞, oral fospropofol disodium 200 mg, mean): 0.118 µg·h/mL
- Cmax ([2]; po, 200 mg, Propofol Cmax Maximum, oral fospropofol disodium 200 mg): 0.191 µg/mL
- Cmax ([2]; po, 200 mg, Propofol Cmax Mean (SD), oral fospropofol disodium 200 mg): 0.069 µg/mL
- Cmax ([2]; po, 200 mg, Propofol Cmax Minimum, oral fospropofol disodium 200 mg): 0.0351 µg/mL
- Cmax ([2]; po, 200 mg, Propofol Cmax, oral fospropofol disodium 200 mg, mean): 0.069 µg/mL
- Tmax ([2]; po, 200 mg, Propofol Tmax, oral fospropofol disodium 200 mg, median): 30 min
- AUC(0-inf) ([2]; po, 400 mg, Propofol AUC0-∞, oral fospropofol disodium 400 mg, mean): 0.298 µg·h/mL
- Cmax ([2]; po, 400 mg, Propofol Cmax Maximum, oral fospropofol disodium 400 mg): 0.499 µg/mL
- Cmax ([2]; po, 400 mg, Propofol Cmax Mean (SD), oral fospropofol disodium 400 mg): 0.201 µg/mL
- Cmax ([2]; po, 400 mg, Propofol Cmax Minimum, oral fospropofol disodium 400 mg): 0.0335 µg/mL
- Cmax ([2]; po, 400 mg, Propofol Cmax, oral fospropofol disodium 400 mg, mean): 0.201 µg/mL
- Tmax ([2]; po, 400 mg, Propofol Tmax, oral fospropofol disodium 400 mg, median): 30 min
- AUC(0-inf) ([2]; po, 800 mg, Propofol AUC0-∞, oral fospropofol disodium 800 mg, mean): 0.577 µg·h/mL
- Cmax ([2]; po, 800 mg, Propofol Cmax Maximum, oral fospropofol disodium 800 mg): 1.35 µg/mL
- Cmax ([2]; po, 800 mg, Propofol Cmax Mean (SD), oral fospropofol disodium 800 mg): 0.362 µg/mL
- Cmax ([2]; po, 800 mg, Propofol Cmax Minimum, oral fospropofol disodium 800 mg): 0.127 µg/mL
- Cmax ([2]; po, 800 mg, Propofol Cmax, oral fospropofol disodium 800 mg, mean): 0.362 µg/mL
- Tmax ([2]; po, 800 mg, Propofol Tmax, oral fospropofol disodium 800 mg, median): 37.2 min
- AUC(0-inf) ([2]; po, 1000 mg, Propofol AUC0-∞, oral fospropofol disodium 1000 mg, mean, n = 9): 0.887 µg·h/mL
- Cmax ([2]; po, 1000 mg, Propofol Cmax Maximum, oral fospropofol disodium 1000 mg, n = 9): 0.681 µg/mL
- Cmax ([2]; po, 1000 mg, Propofol Cmax Mean (SD), oral fospropofol disodium 1000 mg, n = 9): 0.403 µg/mL
- Cmax ([2]; po, 1000 mg, Propofol Cmax Minimum, oral fospropofol disodium 1000 mg, n = 9): 0.267 µg/mL
- Cmax ([2]; po, 1000 mg, Propofol Cmax, oral fospropofol disodium 1000 mg, mean, n = 9): 0.403 µg/mL
- Tmax ([2]; po, 1000 mg, Propofol Tmax, oral fospropofol disodium 1000 mg, median, n = 9): 45 min
- Cmax ([2]; po, 1200 mg, Propofol Cmax Maximum, oral fospropofol disodium 1200 mg): 1.19 µg/mL
- Cmax ([2]; po, 1200 mg, Propofol Cmax Mean (SD), oral fospropofol disodium 1200 mg): 0.641 µg/mL
- Cmax ([2]; po, 1200 mg, Propofol Cmax Minimum, oral fospropofol disodium 1200 mg): 0.193 µg/mL
- Cmax ([2]; po, 1600 mg, Propofol Cmax Maximum, oral fospropofol disodium 1600 mg): 1.17 µg/mL
- Cmax ([2]; po, 1600 mg, Propofol Cmax Mean (SD), oral fospropofol disodium 1600 mg): 0.748 µg/mL
- Cmax ([2]; po, 1600 mg, Propofol Cmax Minimum, oral fospropofol disodium 1600 mg): 0.229 µg/mL
- AUC(0-inf) ([2]; po, 2000 mg, Propofol AUC0-∞, oral fospropofol disodium 2000 mg, mean): 2.25 µg·h/mL
- Cmax ([2]; po, 2000 mg, Propofol Cmax Maximum, oral fospropofol disodium 2000 mg): 1.62 µg/mL
- Cmax ([2]; po, 2000 mg, Propofol Cmax Mean (SD), oral fospropofol disodium 2000 mg): 0.806 µg/mL
- Cmax ([2]; po, 2000 mg, Propofol Cmax Minimum, oral fospropofol disodium 2000 mg): 0.2 µg/mL
- Cmax ([2]; po, 2000 mg, Propofol Cmax, oral fospropofol disodium 2000 mg, mean): 0.806 µg/mL
- Tmax ([2]; po, 2000 mg, Propofol Tmax, oral fospropofol disodium 2000 mg, median): 45 min
- AUC(0-t) [2, 4]: 0.103 µg·h/mL
- half-life [2, 4]: 228 min
- AUC(0-t) [2, 5]: 0.276 µg·h/mL
- half-life [2, 5]: 176 min
- AUC(0-t) [2, 6]: 0.551 µg·h/mL
- half-life [2, 6]: 116 min
- AUC(0-t) [2, 7]: 0.846 µg·h/mL
- half-life [2, 7]: 121 min
- half-life [2, 8]: 177 min
- AUC(0-t) [2, 9]: 2 µg·h/mL
- half-life [2, 9]: 118 min
- Propofol concentration relative to Cmax ([2]; by 4 hours after dosing): less than 25 % of Cmax
- Propofol Cmax CV ([2]; oral fospropofol disodium 200 mg): 64%
- Propofol CL/F [2, 4]: 1889 L/h
- Propofol Cmax CV ([2]; oral fospropofol disodium 400 mg): 63%
- Propofol CL/F [2, 5]: 1658 L/h
- Propofol Cmax CV ([2]; oral fospropofol disodium 800 mg): 99%
- Propofol CL/F [2, 6]: 1561 L/h
- Propofol CL/F [2, 7]: 1213 L/h
- Propofol Cmax CV ([2]; oral fospropofol disodium 1000 mg, n = 9): 30%
- Propofol Cmax CV ([2]; oral fospropofol disodium 1200 mg): 46%
- Propofol CL/F ([2]; oral fospropofol disodium 1200 mg, Fasted (Cohort 5), n = 10, mean): 1260 L/h
- Propofol CL/F ([2]; oral fospropofol disodium 1200 mg, mean): 1260 L/h
- Propofol Cmax CV ([2]; oral fospropofol disodium 1600 mg): 44%
- Propofol CL/F [2, 8]: 1182 L/h
- Propofol Cmax CV ([2]; oral fospropofol disodium 2000 mg): 51%
- Propofol CL/F [2, 9]: 933 L/h

Compound: CC(C)c1cccc(C(C)C)c1OCOP(=O)([O-])O.[Na+] [fospropofol disodium]
- Tolerability of propofol exposures ([2]; single dose of 800 mg (four 200 mg capsules)): well-tolerated
